According to patent publication US20190175609A1, “THERAPEUTIC USES OF A C-RAF INHIBITOR” (Novartis AG, priority 2016, published 2019):

How the values were obtained:
[1] = tested on: advanced NRAS-mutant melanoma; conditions: cited from earlier work
[2] = tested on: Calu-6 (KRAS Q61K) xenografts; assay: Calu-6 xenograft in nude rats; format: in vivo
[3] = target: c-Raf FL (Homo sapiens, UniProt P04049); assay: c-Raf FL biochemical assay; conditions: read-out: c-Raf FL IC-50
[4] = tested on: Hey-A8 (KRAS G12D, BRAF G464E) xenografts; assay: Hey-A8 ovarian xenograft in mice; format: in vivo
Experimental: (§1) Regressions were also achieved in a second human NSCLC model, NCI-H358, at the 200 mg/kg QD dose in mice and in the human ovarian Hey-A8 xenograft at doses as low as 30 mg/kg QD in mice.

[5] = tested on: Calu-6 (KRAS Q61K), HCT116 (KRAS G13D); assay: cell-based anti-proliferative assay, Calu-6 and HCT116; conditions: Homo sapiens; range over Calu-6 and HCT116; read-out: IC50, inhibition of proliferation
[6] = tested on: H727 Model; assay: H727 model, KRASmt NSCLC xenograft; format: in vivo, mice; conditions: FIGS. 15A, 15B, 15C (H358, Calu6, H727 models); H727: 100 mg/kg daily oral, 14 days
[7] = tested on: Calu-6 (KRAS Q61K) xenografts; assay: Calu-6 xenograft in nude mice; format: in vivo
Experimental: Female nude tumor bearing Calu6 mice, n=6 per group were randomized into treatment groups on day 17 following tumor implantation, when the average tumor volume was 180 mm3. […] Dosing volume was 10 mL/kg. Tumor volumes were collected at the time of randomization and twice weekly thereafter for the study duration.
as §1

[8] = tested on: non-small cell lung cancer (NSCLC); assay: Phase I dose finding study of Compound A, single agent; format: in vivo, human; conditions: one NSCLC subject, 1200 mg QD, preliminary
Experimental: Provisional doses for dose escalation can be found in the Table below. […]
In the dose expansion part, patients in Compound A single agent arm are treated with Compound A at the recommended dose and regimen selected based on the dose escalation data. This dose is expected to be safe and tolerated in adult patients in all indications included in the trial. The single agent arm consists of 3 distinct groups: KRAS- and/or BRAF-mutant NSCLC, KRAS- and/or BRAF-mutant ovarian cancer, and patients with other solid tumors (which may be advanced) harboring MAPK pathway alteration(s) such as relapsed/refractory melanoma after failure of BRAFi/MEKi combination therapy and NRAS-mutant melanoma patients.
This was further confirmed by preliminary results obtained from the clinical trial.

[9] = tested on: NCI-H358 (KRAS G12C) xenografts; assay: NCI-H358 xenograft in mice; format: in vivo
Experimental: SCID beige female tumor bearing NCI-H358 mice, n=8 per group, were randomized into 3 groups 14 days post tumor cell inoculation with an average tumor volume range of 259.44-262.47 mm^3.
Tumor volumes were measured by digital caliper 3 times a week and body weights of all animals were recorded through the course of treatment.
as §1

[10] = predicted human PK of Compound A
[11] = tested on: SKMEL30 cells (NRAS Q61K melanoma cells); assay: SKMEL30 NRAS-mutant melanoma xenograft in nude mice; format: in vivo; conditions: for % regression: day 21 post-implant (9 days of treatment)
Experimental: […]. Mice were randomized into treatment groups on day 12 post implantation, when the average tumor volume was ˜200 mm^3. […] Treatments began on day 12 and continued until day 21 post implantation. Tumor volume and body weights were collected at the time of randomization and twice per week for the study duration. Tumor volume was determined by measurement with calipers and calculated using a modified ellipsoid formula, where tumor volume (TV) (mm^3)=[((1×w2)×3.14159))/6], where 1 is the longest axis of the tumor and w is perpendicular to 1. Mice were monitored for tumor growth, body weight and body condition. Animal well-being and behavior were monitored twice weekly. General health of mice was monitored daily. The anti-tumor activity was determined by assessing % T/C or % regression on day 21 post-implant (9 days of treatment).

[12] = cell-based anti-proliferative assay, melanoma and NSCLC lines; conditions: Homo sapiens, read-out: IC50, inhibition of proliferation
[13] = target: b-Raf (Homo sapiens, UniProt P15056); assay: b-Raf biochemical assay; conditions: read-out: b-Raf IC-50
Sequence of b-Raf (P15056 2-766): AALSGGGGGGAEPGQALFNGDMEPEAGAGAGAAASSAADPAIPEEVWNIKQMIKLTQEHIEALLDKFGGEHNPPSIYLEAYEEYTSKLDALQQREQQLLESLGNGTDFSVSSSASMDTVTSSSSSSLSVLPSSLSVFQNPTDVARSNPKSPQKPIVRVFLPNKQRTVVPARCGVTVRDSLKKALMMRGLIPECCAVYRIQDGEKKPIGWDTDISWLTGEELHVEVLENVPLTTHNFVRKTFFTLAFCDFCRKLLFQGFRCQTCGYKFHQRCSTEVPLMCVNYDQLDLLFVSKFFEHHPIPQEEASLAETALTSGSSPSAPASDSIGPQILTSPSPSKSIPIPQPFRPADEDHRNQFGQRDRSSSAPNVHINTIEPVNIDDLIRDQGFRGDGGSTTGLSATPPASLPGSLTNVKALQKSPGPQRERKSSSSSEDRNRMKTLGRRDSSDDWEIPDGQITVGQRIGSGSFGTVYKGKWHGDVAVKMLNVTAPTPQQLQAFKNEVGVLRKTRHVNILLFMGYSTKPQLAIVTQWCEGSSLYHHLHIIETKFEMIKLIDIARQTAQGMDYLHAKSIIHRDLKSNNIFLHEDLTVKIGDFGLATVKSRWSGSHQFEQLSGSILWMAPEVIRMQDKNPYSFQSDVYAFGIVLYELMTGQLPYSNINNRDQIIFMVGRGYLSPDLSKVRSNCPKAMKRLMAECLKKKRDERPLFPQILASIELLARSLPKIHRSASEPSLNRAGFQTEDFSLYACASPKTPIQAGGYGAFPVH

[14] = tolerability in KRAS- and NRAS-mutant xenograft models (body weight); format: in vivo; conditions: all xenograft models
Experimental: as §1

[15] = patients with NRAS-mutant melanoma

Sequence of c-Raf FL (P04049 whole entry): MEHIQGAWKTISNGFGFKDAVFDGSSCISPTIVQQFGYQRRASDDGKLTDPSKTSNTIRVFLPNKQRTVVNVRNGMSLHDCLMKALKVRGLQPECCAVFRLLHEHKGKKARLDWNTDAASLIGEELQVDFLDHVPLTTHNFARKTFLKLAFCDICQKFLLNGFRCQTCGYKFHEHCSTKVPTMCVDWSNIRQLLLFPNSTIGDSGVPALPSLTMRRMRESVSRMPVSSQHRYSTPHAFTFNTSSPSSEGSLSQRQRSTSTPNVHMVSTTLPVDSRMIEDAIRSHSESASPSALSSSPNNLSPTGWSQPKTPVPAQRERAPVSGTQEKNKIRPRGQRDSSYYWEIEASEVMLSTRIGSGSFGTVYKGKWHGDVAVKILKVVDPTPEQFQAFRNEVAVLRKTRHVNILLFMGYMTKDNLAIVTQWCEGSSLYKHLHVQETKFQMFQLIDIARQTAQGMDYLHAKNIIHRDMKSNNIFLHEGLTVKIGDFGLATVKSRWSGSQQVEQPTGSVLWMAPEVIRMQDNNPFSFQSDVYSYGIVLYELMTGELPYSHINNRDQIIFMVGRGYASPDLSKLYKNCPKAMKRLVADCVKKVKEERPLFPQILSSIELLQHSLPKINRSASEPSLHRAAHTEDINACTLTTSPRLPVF

Q: Which “HR for PFS, in favor of binimetinib” value ([1]; binimetinib vs. dacarbazine) does the source give for `Cn1cnc2c(F)c(Nc3ccc(Br)cc3F)c(C(=O)NOCCO)cc21` [binimetinib] here?
A: The value was 0.62 (0.47-0.80).

Q: What about the “discontinuation rate as a result of adverse events suspected to be related to study drug” value [1, 15] of the same compound?
A: The value was 20%.

Q: And the “median PFS (95% CI)” value [1, 15]?
A: The value was 2.8 (95% CI: 2.8-3.6).

Q: What about the overall response rate [1, 15] of the same compound?
A: Its overall response rate is 15%.

Q: And the “overall survival (95% CI)” value [1, 15]?
A: Its value is 11.0 (95% CI: 8.9-13.6) months.

Q: Which anti-tumor effect ([2]; 35 mg/kg QD, rats) does the source give for `Cc1ccc(NC(=O)c2ccnc(C(F)(F)F)c2)cc1-c1cc(OCCO)nc(N2CCOCC2)c1` [COMPOUND A, N-(3-(2-(2-hydroxyethoxy)-6-morpholinopyridin-4-yl)-4-methylphenyl)-2-(trifluoromethyl)isonicotinamide] here?
A: The anti-tumor effect was “Tumor stasis”.

Q: What about the anti-tumor effect ([2]; 75 and 150 mg/kg QD, nude rats) of the same compound?
A: Its anti-tumor effect is “regressions”.

Q: What about the IC50 [3] of the same compound?
A: Its IC50 is 0.2 nM.

Q: What about the anti-tumor effect ([4]; Hey-A8 xenograft, dose not stated) of the same compound?
A: The anti-tumor effect was “tumor regression”.

Q: What about the anti-tumor effect ([4]; Hey-A8 xenograft, dose not stated, listed as Compound A) of the same compound?
A: The anti-tumor effect was “tumor regressions”.

Q: And the anti-tumor effect ([4]; doses as low as 30 mg/kg QD, mice)?
A: The anti-tumor effect was “Regressions”.

Q: And the IC50 [5]?
A: Its IC50 is 200 to 1200 nM.

Q: And the “single agent activity in KRASmt NSCLC models” value [6]?
A: Its value is “showed single agent activity”.

Q: What about the anti-tumor effect ([7]; 30 mg/kg QD, mice) of the same compound?
A: Its anti-tumor effect is “Tumor stasis”.

Q: What about the anti-tumor effect ([7]; 100, 200, and 300 mg/kg once daily (QD), nude mice) of the same compound?
A: Its anti-tumor effect is “regressions”.

Q: What about the anti-tumor effect ([7]; Calu-6 xenograft, dose not stated) of the same compound?
A: Its anti-tumor effect is “tumor regression”.

Q: What about the anti-tumor effect ([7]; Calu-6 xenograft, dose not stated, listed as Compound A) of the same compound?
A: The anti-tumor effect was “tumor regressions”.

Q: What about the “partial response according to RECIST” value [8] of the same compound?
A: The value was −35%.

Q: What about the anti-tumor effect ([9]; 200 mg/kg QD, mice) of the same compound?
A: The anti-tumor effect was “Regressions”.

Q: What about the anti-tumor effect ([9]; NCI-H358 xenograft, dose not stated) of the same compound?
A: The anti-tumor effect was “tumor regression”.

Q: What about the anti-tumor effect ([9]; NCI-H358 xenograft, dose not stated, listed as Compound A) of the same compound?
A: Its anti-tumor effect is “tumor regressions”.

Q: What about the predicted half-life [10] of the same compound?
A: The predicted half-life was about 9 h.

Q: What about the “% regression” value ([11]; 25 mg/kg bid) of the same compound?
A: Its value is 48%.

Q: And the “% regression” value ([11]; 100 mg/kg bid)?
A: Its value is 59%.

Q: What about the tolerability ([11]; 25 and 100 mg/kg bid, body weight, toxicity signs, mortality) of the same compound?
A: Its tolerability is “well tolerated”.

Q: And the anti-tumor effect ([11]; SK-MEL-30 melanoma model, dose not stated)?
A: The anti-tumor effect was “tumor regression”.

Q: And the IC50 [12]?
A: The IC50 was 200 to 1200 nM.

Q: What about the IC50 [13] of the same compound?
A: Its IC50 is 0.73 nM.

Q: And the “tolerability judged by body weight loss” value [14]?
A: The value was “well tolerated”.

Q: With `CN(C)/N=N/c1[nH]cnc1C(N)=O` [dacarbazine] as the compound, how does the “discontinuation rate as a result of adverse events suspected to be related to study drug” value [1, 15] read?
A: The value was 5%.
